Results: ChEMBL document CHEMBL4020739, “Investigation of the structural requirements of K-Ras(G12D) selective inhibitory peptide KRpep-2d using alanine scans and cysteine bridging” (Bioorg Med Chem Lett, 2017)
The source made the active and inactive calls. The rule behind the calls is not given here. Peptide text beside a SMILES is read from it.

Columns and labels:
[1] = tested on: A549; assay: Antiproliferative activity against human A549 cells harboring K-Ras G12C mutant assessed as cell proliferation at 10 to 30 uM by CellTitre-Glo assay; format: functional, cell-based
[2] = tested on: A-427; assay: Antiproliferative activity against human A427 cells harboring K-Ras G12D mutant assessed as cell proliferation at 10 uM by CellTitre-Glo assay relative to control; format: functional; conditions: read-out: Activity
[3] = tested on: A-427; assay: Antiproliferative activity against human A427 cells harboring K-Ras G12D mutant assessed as cell proliferation at 30 uM by CellTitre-Glo assay relative to control; format: functional; conditions: read-out: Activity
[4] = molecular target: T1, GTPase KRas (Homo sapiens, UniProt P01116, G12D); assay: Inhibition of biotinylated K-Ras G12D mutant (unknown origin) assessed as reduction in SOS1 (564 to 1049 residues)-mediated BODIPY-GDP-GTP exchange after 1 hr in presence of DTT by TR-FRET assay
[5] = species: Homo sapiens; assay: Selectivity ratio of IC50 for inhibition of biotinylated K-Ras G12C mutant (unknown origin) to IC50 for inhibition of biotinylated K-Ras G12D mutant (unknown origin)
[6] = species: Homo sapiens; assay: Selectivity ratio of IC50 for inhibition of biotinylated wild type K-Ras (unknown origin) to IC50 for inhibition of biotinylated K-Ras G12D mutant (unknown origin)
[7] = molecular target: GTPase KRas (Homo sapiens, UniProt P01116); assay: Inhibition of biotinylated wild-type K-Ras (unknown origin) assessed as inhibition of human SOS1 (564 to 1049 residues)-mediated BODIPY-GDP-GTP exchange after 1 hr by TR-FRET assay
[8] = molecular target: T1, GTPase KRas; assay: Inhibition of biotinylated K-Ras G12D mutant (unknown origin) assessed as reduction in SOS1 (564 to 1049 residues)-mediated BODIPY-GDP-GTP exchange after 1 hr by TR-FRET assay
[9] = molecular target: GTPase KRas (Homo sapiens, UniProt P01116, G12C); assay: Inhibition of biotinylated K-Ras G12C mutant (unknown origin) assessed as reduction in SOS1 (564 to 1049 residues)-mediated BODIPY-GDP-GTP exchange after 1 hr by TR-FRET assay

IC50 [4] [nM]	Ratio IC50 [5]	Ratio IC50 [6]	IC50 [7] [nM]	IC50 [8] [nM]	IC50 [9] [nM]	Compound	Activity [1]	growth at 10 µM [2] [%]	growth at 30 µM [3] [%]
–	–	–	–	–	–	CC[C@H](C)[C@@H]1NC(=O)[C@H](Cc2ccc(O)cc2)NC(=O)[C@H](CC(C)C)NC(=O)[C@@H]2CCCN2C(=O)[C@@H](NC(=O)[C@H](CCCNC(=N)N)NC(=O)[C@H](CCCNC(=N)N)NC(=O)[C@H](CCCNC(=N)N)NC(=O)[C@H](CCCNC(=N)N)NC(C)=O)CSCSC[C@@H](C(=O)N[C@@H](CCCNC(=N)N)C(=O)N[C@@H](CCCNC(=N)N)C(=O)N[C@@H](CCCNC(=N)N)C(=O)N[C@@H](CCCNC(=N)N)C(N)=O)NC(=O)[C@H](C(C)C)NC(=O)[C@@H]2CCCN2C(=O)[C@H](CC(=O)O)NC(=O)[C@H](Cc2ccc(O)cc2)NC(=O)[C@H](CO)NC1=O	inactive	91	69.9
7.4	4	80	216	2.7	12	CC[C@H](C)[C@@H]1NC(=O)[C@H](Cc2ccc(O)cc2)NC(=O)[C@H](CC(C)C)NC(=O)[C@@H]2CCCN2C(=O)[C@@H](NC(=O)[C@H](CCCNC(=N)N)NC(=O)[C@H](CCCNC(=N)N)NC(=O)[C@H](CCCNC(=N)N)NC(=O)[C@H](CCCNC(=N)N)NC(C)=O)CSSC[C@@H](C(=O)N[C@@H](CCCNC(=N)N)C(=O)N[C@@H](CCCNC(=N)N)C(=O)N[C@@H](CCCNC(=N)N)C(=O)N[C@@H](CCCNC(=N)N)C(N)=O)NC(=O)[C@H](C(C)C)NC(=O)[C@H](C)NC(=O)[C@H](CC(=O)O)NC(=O)[C@H](Cc2ccc(O)cc2)NC(=O)[C@H](CO)NC1=O (HELM PEPTIDE1{[ac].R.R.R.R.C.P.L.Y.I.S.Y.D.A.V.C.R.R.R.R.[am]}$PEPTIDE1,PEPTIDE1,6:R3-16:R3$$$V2.0)	–	–	–
244	6	65	4190	64	358	CC[C@H](C)[C@@H]1NC(=O)[C@H](Cc2ccc(O)cc2)NC(=O)[C@H](CC(C)C)NC(=O)[C@@H]2CCCN2C(=O)[C@@H](NC(=O)[C@H](CCCNC(=N)N)NC(=O)[C@H](CCCNC(=N)N)NC(=O)[C@H](CCCNC(=N)N)NC(=O)[C@H](CCCNC(=N)N)NC(C)=O)CSSC[C@@H](C(=O)N[C@@H](CCCNC(=N)N)C(=O)N[C@@H](CCCNC(=N)N)C(=O)N[C@@H](CCCNC(=N)N)C(=O)N[C@@H](CCCNC(=N)N)C(N)=O)NC(=O)[C@H](C(C)C)NC(=O)[C@@H]2CCCN2C(=O)[C@H](CC(=O)O)NC(=O)[C@H](C)NC(=O)[C@H](CO)NC1=O (HELM PEPTIDE1{[ac].R.R.R.R.C.P.L.Y.I.S.A.D.P.V.C.R.R.R.R.[am]}$PEPTIDE1,PEPTIDE1,6:R3-16:R3$$$V2.0)	–	–	–
